Consider 25 compounds from PMC6390472, “‘Second-generation’ 1,2,3-triazole-based inhibitors of Porphyromonas gingivalis adherence to oral streptococci and biofilm formation” (MedChemComm, 2019).

One may read the inhibition as the relative decrease from the control value, in per cent. A word on the IC50: it is the concentration needed to halve the response being measured. The melting point is the temperature, or range, at which the solid turns liquid.

Like-named read-outs stand apart in the source and are kept apart here.

The test system of one data set is P. gingivalis. The data set can be described thus: Planktonic growth of P. gingivalis (O.D.600nm). It counts as cell-based, P. gingivalis ATCC33277. Particulars: Porphyromonas gingivalis, read-out: Percent inhibition of: P. gingivalis (planktonic growth). Here is the method: (§1) P. gingivalis ATCC33277 was grown in reduced trypticase soy broth (Difco) supplemented with 0.5 percent yeast extract, 1 μg mL^–1 menadione, and 5 μg mL^–1 hemin. Twenty five milliliters of medium were reduced for 24 h under anaerobic conditions by equilibrating in an atmosphere consisting of 10% CO2, 10% H2, and 80% N2. Following equilibration, P. gingivalis was inoculated in the medium and grown for 48 h at 37 °C under anaerobic conditions. S. gordonii DL-1 (1) was cultured aerobically without shaking in brain heart infusion (BHI) broth supplemented with 1 percent yeast extract for 16 hours at 37 °C. For some compounds that inhibited P. gingivalis adherence to S. gordonii, we determined their effect on planktonic growth of P. gingivalis and S. gordonii. The appropriate growth medium (10 ml) was supplemented with 10 μl of a 40 mM compound stock solution in DMSO. After inoculation, broth cultures were incubated as described above and compared to cultures grown in medium that was supplemented only with 0.1% DMSO. The cell density of each culture was determined by measuring the optical density at 600 nm (O.D.600nm) and the percent growth inhibition/stimulation was calculated using the following equation: [(O.D.600nm of the control/O.D.600nm of the culture grown in the presence of compound) – 1] × 100.

The subject of data set [1] is P. gingivalis adherence to S. gordonii. The data set is described as follows: Biofilm model of P. gingivalis adherence to S. gordonii (confocal, green/red fluorescence ratio). Format: cell-based, P. gingivalis ATCC33277 / S. gordonii DL-1. The note with it: inhibition of P. gingivalis adherence to S. gordonii; concentration that reduced ratio of green to red fluorescence by 50%; tested 0–60 μM. The procedure: as §1
Two species biofilms were formed essentially as previously described.[39] To prepare bacterial cells for biofilm culture, 10 ml of an overnight S. gordonii culture was centrifuged at 5600 rpm for 5 min and the cell pellet was suspended in 1 mL sterile PBS. Subsequently, 20 μL of 5 mg ml^–1 hexidium iodide (Molecular Probes) was added to the cell suspension and incubated for 15 min with gentle shaking at room temperature in the dark. The labeled cells were centrifuged as described above, washed with phosphate-buffered saline (10 mM Na2HPO4, […], […], and 2.7 mM KCl, pH 7.2; [PBS]) and the cell pellet was suspended in PBS at a final O.D.600nm of 0.8. Similarly, 10 mL of a 48 h culture of P. gingivalis was centrifuged at 5600 rpm for 15 min, the cell pellet was suspended in 1 mL PBS and 20 μL of 5(6)-carboxyfluorescein N-hydroxysuccinimide ester (4 mg ml^–1, Molecular Probes, Inc.) was added. After incubation for 30 min with gentle shaking at room temperature in the dark, the suspension was centrifuged and washed as described above and suspended in PBS at a final O.D.600nm of 0.4. For biofilm cultures, 1 mL of labeled S. gordonii cells was added to each well of a 12-well microtiter plate (Greiner Bio-one) containing a circular coverslip (Fisher brand) and incubated in an anaerobic chamber with rotary shaking for 24 h at 37 °C. Unbound cells were removed by aspiration and 1 ml of labeled P. gingivalis cells containing the desired concentration of test compound was added and incubated under anaerobic conditions for 22 h at 37 °C. Test compounds were dissolved in dimethyl sulfoxide (DMSO) to generate 1000× stock solutions and were routinely tested over a final concentration range of 0–60 μM. 1 μL of the appropriate stock solution was added to each 1 mL aliquot of labeled P. gingivalis cells and incubated for 30 min at room temperature prior to adding the suspension to the microtiter plate wells. For control biofilms, 1 μL of DMSO was added to 1 mL of labeled P. gingivalis and incubated as described above.
To visualize P. gingivalis/S. gordonii biofilms, unbound P. gingivalis cells were removed by aspiration and coverslips were washed once with PBS. Biofilms were fixed by incubating the coverslips with 1 mL of 4% paraformaldehyde for 5 min followed by two washes with PBS. The coverslips were then removed, placed face down on a glass microscope slide containing a drop of antifade reagent (Life Technology) and sealed with nail polish. […]

In another data set the test system is S. gordonii. The data set is described as follows: Planktonic growth of S. gordonii (O.D.600nm). It counts as cell-based, S. gordonii DL-1. The note with it: Streptococcus gordonii, read-out: Percent inhibition of: S. gordonii (planktonic growth). The procedure: as §1
The test system of another data set is TIGK cells. The data set is described as follows: Cellular ATP levels, CellTiterGlo. It counts as cell-based, Human. Particulars: for ATP levels: 95 (5, 20, 40 μM), 111 (5, 20, 60 μM), 115 (5, 10, 20 μM), 122 (5, 20, 60 μM). The procedure: Human telomerase immortalized gingival keratinocytes (TIGKs) were provided by Dr. Richard Lamont (University of Louisville) and were authenticated by comparison to primary gingival epithelial cells for cell morphology, growth, cytokeratin expression and the expression of toll-like receptors. TIGKs were cultured at 37 °C in an atmosphere of 5% CO2 in Basal Medium Dermalife K complete kit with Supplements (LifeLine, Frederick, MD). Cultures were incubated for 5 days and attained >95% confluence.
Cell metabolic activity was assessed by quantifying total ATP levels in cell culture samples using CellTiterGlo reagent (Promega). TIGK and J774A.1 cells were cultured and incubated with compounds as described above, washed three times with sterile PBS and incubated with 100 μl of CellTiterGlo substrate for 2 min with shaking and for an additional 10 min without shaking. Total light production was measured using a Victor 3 multi-label plate reader (PerkinElmer) in luminometer mode. All samples were assayed in triplicate.

The mark [2] stands for this setting: 40 μM compound, cultures incubated overnight, vs 0.1% DMSO.

Regarding `CCN(CC)c1nc(-c2cn(-c3ccc(-c4nc(-c5ccc(Cl)cc5)c(-c5ccc(Cl)cc5)o4)cc3)nn2)nc(N(CC)CC)n1` [Compound 95], the figures for the inhibition at 40 µM with P. gingivalis (setting [2]) and with S. gordonii (setting [2]) were 0.4 ± 6.1% and -0.8%, respectively. Further, the IC50 in data set [1] is 3.7 µM. For the same compound, in the data set with TIGK cells (18 h exposure), the ATP levels entry is recorded as “did not significantly reduce the levels of ATP”.

Take `COc1ccccc1-c1cn(-c2ccc(S(=O)(=O)Cc3nc(-c4ccc(Cl)cc4)c(-c4ccc(Cl)cc4)o3)cc2)nn1` [Compound 57]: the melting point was 236 to 238 °C. The IC50 in data set [1] came out at 20 µM.

Regarding `COc1ccccc1-c1cn(-c2ccc(S(=O)(=O)Cc3nc(-c4ccc(F)cc4)c(-c4ccc(F)cc4)o3)cc2)nn1` [Compound 54], the inhibition at 40 µM in the data set with P. gingivalis (setting [2]) is -3.4%; with S. gordonii (setting [2]), -3.3%. Besides, in data set [1], the IC50 was 21.2 µM.

Regarding `Fc1ccc(Nc2nc(Nc3ccc(F)cc3)nc(-c3cn(-c4ccc(-c5nc(-c6ccc(F)cc6)c(-c6ccc(F)cc6)o5)cc4)nn3)n2)cc1` [Compound 115], the inhibition at 40 µM in the data set on P. gingivalis (setting [2]) is -2.8%; with S. gordonii (setting [2]), -0.6%. The IC50 in data set [1] stood at 2.3 µM. For the same compound, the ATP levels result in the data set on TIGK cells (18 h exposure) is “did not significantly reduce the levels of ATP”.

In the case of `Fc1ccc(Nc2nc(Nc3ccc(F)cc3)nc(-c3cn(-c4cccc(-c5nc(-c6ccccc6)c(-c6ccccc6)o5)c4)nn3)n2)cc1` [Compound 111], the results for the inhibition at 40 µM in the data set with P. gingivalis and with S. gordonii were 8.3 ± 3.6% and 2.9 ± 3.9%, respectively. Moreover, the IC50 in data set [1] stood at 4.3 µM. In addition, the “Concentration with cytotoxic activity relative to IC50 for inhibition of adherence” value with TIGK cells (60 μM vs IC50) was “approximately 15 fold”. Besides, the “Reduction of ATP levels” value in the data set with TIGK cells (18 h exposure, 60 μM, p < 0.05 vs 0.1% DMSO) is recorded as “statistically significant”. Besides, the ATP levels entry in the data set with TIGK cells (18 h exposure) was “dose-dependent reduction of ATP levels”.

Turning to `O=S(=O)(Cc1nc(-c2ccc(Cl)cc2)c(-c2ccc(Cl)cc2)o1)c1ccc(-n2cc(-c3ccc(F)cc3)nn2)cc1` [Compound 56], the figures for the inhibition at 40 µM in the data set with P. gingivalis (setting [2]) and in the data set with S. gordonii (setting [2]) were -2.7% and 6.2 ± 8.8%, respectively. In addition, the IC50 in data set [1] worked out at 6.3 µM.

For the compound `Fc1ccc(-c2nc(-c3ccc(-n4cc(-c5nc(Nc6ccccc6F)nc(Nc6ccccc6F)n5)nn4)cc3)oc2-c2ccc(F)cc2)cc1` [Compound 103], the values for the inhibition at 40 µM with P. gingivalis (setting [2]) and with S. gordonii (setting [2]) were -1.3% and -8.6%, respectively. The IC50 in data set [1] is 12.3 µM.

With `Fc1ccc(-c2nc(-c3cccc(-n4cc(-c5nc(Nc6ccccc6F)nc(Nc6ccccc6F)n5)nn4)c3)oc2-c2ccc(F)cc2)cc1` [Compound 102], the figures for the inhibition at 40 µM in the data set with P. gingivalis (setting [2]) and in the data set on S. gordonii (setting [2]) were -8.3% and -0.6%, respectively. Moreover, the IC50 in data set [1] came to 5 µM.

Turning to `CCN(CC)c1nc(-c2cn(-c3ccc(-c4nc(-c5ccc(F)cc5)c(-c5ccc(F)cc5)o4)cc3)nn2)nc(N(CC)CC)n1` [Compound 93], the inhibition at 40 µM was 2 ± 6.1% in the data set with P. gingivalis (setting [2]) and -2% in the data set on S. gordonii (setting [2]). The IC50 in data set [1] came to 9.4 µM.

As for `CCCCCc1ccc(-c2cn(-c3ccc([S+]([O-])Cc4nc(-c5ccccc5)c(-c5ccccc5)o4)cc3)nn2)cc1` (stereo not drawn) [Compound 34], the IC50 in data set [1] was above 60 µM.

Turning to `[O-][S+](Cc1nc(-c2ccc(F)cc2)c(-c2ccc(F)cc2)o1)c1ccc(-n2cc(-c3ccc(F)cc3)nn2)cc1` (stereo not drawn) [Compound 47], the half-maximal inhibitory concentration (IC50) in data set [1] was 35.9 µM.

For the compound `CCN(CC)c1nc(-c2cn(-c3cccc(-c4nc(-c5ccco5)c(-c5ccco5)o4)c3)nn2)nc(N(CC)CC)n1` [Compound 98], the IC50 in data set [1] was above 60 µM.

For `CN(C)[C@@H]1C(O)=C(C(N)=O)C(=O)[C@@]2(O)C(O)=C3C(=O)c4c(O)cccc4[C@@](C)(O)[C@H]3C[C@@H]12` [Tet, tetracycline, reference compound], the inhibition at 10 µg/mL stood at 95.7 ± 1.2% in the data set on P. gingivalis (10 μg ml^–1 tetracycline) and 94.2 ± 1.7% in the data set with S. gordonii (10 μg ml^–1 tetracycline).

For the compound `Fc1ccc(Nc2nc(Nc3ccc(F)cc3)nc(-c3cn(-c4ccccc4-c4nc(-c5ccc(Cl)cc5)c(-c5ccc(Cl)cc5)o4)nn3)n2)cc1` [Compound 116], the concentration for half-maximal inhibition (IC50) in data set [1] was above 40 µM.

With `Fc1ccc(Nc2nc(Nc3ccc(F)cc3)nc(-c3cn(-c4ccccc4-c4nc(-c5ccco5)c(-c5ccco5)o4)nn3)n2)cc1` [Compound 122], the inhibition at 40 µM in the data set with P. gingivalis (setting [2]) was 2.5 ± 5.4%; in the data set on S. gordonii (setting [2]), -0.6%. In data set [1], the IC50 stood at 2.4 µM. In addition, in the data set on TIGK cells (18 h exposure), the ATP levels entry is recorded as “did not significantly reduce the levels of ATP”.

As to `Fc1ccc(Nc2nc(Nc3ccc(F)cc3)nc(-c3cn(-c4ccccc4-c4nc(-c5ccc(F)cc5)c(-c5ccc(F)cc5)o4)nn3)n2)cc1` [Compound 113], in data set [1], the IC50 was 49.2 µM.

For `Fc1ccccc1Nc1nc(Nc2ccccc2F)nc(-c2cn(-c3cccc(-c4nc(-c5ccccc5)c(-c5ccccc5)o4)c3)nn2)n1` [Compound 100], in data set [1], the IC50 is 9.6 µM.

Take `COc1ccccc1-c1cn(-c2ccc([S+]([O-])Cc3nc(-c4ccc(Cl)cc4)c(-c4ccc(Cl)cc4)o3)cc2)nn1` (stereo not drawn) [Compound 51]: the 50% inhibitory concentration (IC50) in data set [1] is 10.2 µM.

Turning to `[O-][S+](Cc1nc(-c2ccccc2)c(-c2ccccc2)o1)c1ccc(-n2cc(-c3ccc(Oc4ccccc4)cc3)nn2)cc1` (stereo not drawn) [Compound 35], the IC50 in data set [1] was above 60 µM.

On to `O=S(=O)(Cc1nc(-c2ccc(F)cc2)c(-c2ccc(F)cc2)o1)c1ccc(-n2cc(-c3ccc(F)cc3)nn2)cc1` [Compound 53], for which, in data set [1], the IC50 stood at 40 µM.

Consider `Fc1ccccc1Nc1nc(Nc2ccccc2F)nc(-c2cn(-c3ccc(-c4nc(-c5ccco5)c(-c5ccco5)o4)cc3)nn2)n1` [Compound 109], for which, in data set [1], the IC50 is above 60 µM.

As to `Fc1ccc(Nc2nc(Nc3ccc(F)cc3)nc(-c3cn(-c4ccc(-c5nc(-c6ccco6)c(-c6ccco6)o5)cc4)nn3)n2)cc1` [Compound 124], the IC50 in data set [1] was 7.8 µM.

Take `Fc1ccc(Nc2nc(Nc3ccc(F)cc3)nc(-c3cn(-c4cccc(-c5nc(-c6ccc(Cl)cc6)c(-c6ccc(Cl)cc6)o5)c4)nn3)n2)cc1` [Compound 117]: the IC50 in data set [1] is 27.8 µM.

For the compound `CCN(CC)c1nc(-c2cn(-c3ccc(-c4nc(-c5ccco5)c(-c5ccco5)o4)cc3)nn2)nc(N(CC)CC)n1` [Compound 99], the IC50 in data set [1] is above 60 µM.

For the compound `[O-][S+](Cc1nc(-c2ccccc2)c(-c2ccccc2)o1)c1ccc(-n2cc(-c3ccccc3C(F)(F)F)nn2)cc1` (stereo not drawn) [Compound 32], the IC50 in data set [1] is above 60 µM.
